Laboratory results taken from patent publication US20210002182A1, “NOVEL PHOSPHATIC FERTILIZERS BASED ON ALKANOLAMINE SALTS OF PHOSPHORIC ACID” (Yara UK Limited, priority 2017, published 2021).

Experiments:
radish test crop = assay: Glasshouse crop safety trial, foliar spraying; assay type: in vivo; details: foliar spraying at 5 leaf stage, 3.4 kg P2O5 per ha in 200 litres/ha water, assessed seven days after spraying
Protocol: Glasshouse trials were carried out in order to assess crop safety of the composition described above. The trials were carried out using a radish test crop grown in pots in a sand medium and fed via a nutrient solution. A randomised block design using 4 replicates was employed. The product was applied by foliar spraying at the 5 leaf growth stage using a rate equivalent to 10 kg/ha in 200 litres/ha water (equating to an input of 3.4 kg P2O5 per ha). […] The crop was assessed for symptoms of phytotoxicity seven days after spraying.

[1] = 75 weight % phosphoric acid; cited from earlier work

In the case of O=P(O)(O)O [phosphoric acid], the “Symptoms of phytotoxicity (crop damage)” value (radish test crop) is listed as “signs of crop damage (leaf burn)” and the Freezing point [1] is listed as −20 °C.
